Where two headings read alike, the source gives them in different places. Starred links: 1 amine or outer side, 2 acyl side, 3 side chain; linkers in the order of their positions; H or OH if unused. Positions of bridges follow the written chain, without caps; N, C: chain ends. Non-standard residues stand in square brackets, D forms with d. Residues, ends and D or L forms follow the SMILES beside them. *: point of attachment. Phe(4-CF3) = N[C@@H](Cc1ccc(C(F)(F)F)cc1)C(=O)O; NMePhe(3-Cl) = CN[C@@H](Cc1cccc(Cl)c1)C(=O)O; NMeF = CN[C@@H](Cc1ccccc1)C(=O)O; NMeGABA = CN(CCCC(=O)[*:2])[*:1]; NMeI = CC[C@H](C)[C@H](NC)C(=O)O; NMeβAla = CN(CCC(=O)[*:2])[*:1]; NMeL = CN[C@@H](CC(C)C)C(=O)O; NMeV = CN[C@H](C(=O)O)C(C)C; NMeA = CN[C@@H](C)C(=O)O; Piperidide = C1CCN(*)CC1; dNMeA = CN[C@H](C)C(=O)O; β3hA = C[C@H](N)CC(=O)O; Sar = CNCC(=O)O; tBu = CC(C)(C)*
Columns and labels:
[1] = Metabolic stability in human hepatic microsome; format: in vitro ADME; details: microsomes
[2] = PAMPA (parallel artificial membrane permeability assay); format: in vitro ADME; details: PAMPA
Procedure, shortened: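 Artificial membrane was 10% (w/v) egg lecithin plus 0.5% (w/v) cholesterol in dodecane on a PVDF filter. A 10 mM DMSO stock was added at 0.5% (v/v) to donor buffer (50 mM MOPSO, pH 6.5, 5.0% glycocholic acid). After 18 h at 37 °C, LC/MS or LC/UV gave donor and acceptor levels for Pe.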

[3] = pH 7.4, human hepatic microsome, NADPH(+), read-out: CL NADPH(+)
[4] = membrane permeation rate (Pe), 50 mM MOPSO buffer pH 6.5 with 5.0% glycocholic acid, 37° C., 18 hours, read-out: iPAMPA Pe

Compound	microsomal CLint at 1 uM [1, 3]	Papp at 18 hours, 50 µM [2, 4]	microsomal CLint at 1 uM ([1]; human, pH 7.4, CL NADPH(+))	Papp at 18 hours, 50 µM ([2]; pH 6.5)
CC(C)C[C@H]1C(=O)N[C@@H](COC(C)(C)C)C(=O)N[C@H](C(=O)N2CCCCC2)CC(=O)N(C)[C@@H](C)C(=O)N(C)[C@@H](C)C(=O)N(C)[C@@H](Cc2ccccc2)C(=O)N(C)[C@@H](CC(C)C)C(=O)N[C@@H]([C@@H](C)O)C(=O)N(C)[C@@H](C)C(=O)N1C [DP-267] ([NMeA][NMeA][NMeF][NMeL]T[NMeA][NMeL]S(tBu)D-Piperidide; lactam N-9)	75 µL/min/mg	25 ×10⁻⁶ cm/s		
CC[C@H](C)[C@@H]1NC(=O)CN(C)C(=O)[C@H]([C@@H](C)O)NC(=O)[C@H](C(C)C)N(C)C(=O)[C@@H](C)N(C)C(=O)C[C@@H](C(=O)N2CCCCC2)NC(=O)[C@H](CC(C)C)NC(=O)[C@H](Cc2ccccc2)N(C)C(=O)[C@H](CC(C)C)N(C)C(=O)[C@H](C)N(C)C1=O [DP-433] ([dNMeA][NMeV]T[Sar]I[NMeA][NMeL][NMeF]LD-Piperidide; lactam N-10)	35 µL/min/mg	45 ×10⁻⁶ cm/s		
CC(C)C[C@@H]1NC(=O)C[C@@H](C(=O)N2CCCCC2)NC(=O)[C@H]([C@@H](C)O)NC(=O)[C@H](CC(C)C)N(C)C(=O)CN(C)C(=O)[C@H](Cc2ccccc2)N(C)C(=O)[C@H](C)N(C)C1=O [DP-745] (L[NMeA][NMeF][Sar][NMeL]TD-Piperidide; lactam N-7)	232 µL/min/mg	17 ×10⁻⁶ cm/s		
CC(C)C[C@H]1C(=O)N[C@H](C(=O)N2CCCCC2)CC(=O)N(C)[C@@H](C)C(=O)N(C)[C@@H](Cc2ccccc2)C(=O)N(C)[C@@H](CC(C)C)C(=O)N[C@@H]([C@@H](C)O)C(=O)N(C)CC(=O)N[C@@H](COC(C)(C)C)C(=O)N1C [DP-697] ([NMeA][NMeF][NMeL]T[Sar]S(tBu)[NMeL]D-Piperidide; lactam N-8)	87 µL/min/mg	35 ×10⁻⁶ cm/s		
CC(C)C[C@@H]1NC(=O)[C@H](CC(C)C)N(C)C(=O)[C@H](CC(C)C)N(C)C(=O)[C@@H](C)N(C)C(=O)C[C@@H](C(=O)N(C)[C@@H](Cc2ccccc2)C(=O)N[C@@H](C)C(=O)N2CCCCC2)NC(=O)[C@H](CC(C)C)N(C)C(=O)[C@H](Cc2ccccc2)NC(=O)[C@H](Cc2ccccc2)N(C)C(=O)[C@H](C)NC(=O)[C@H]([C@@H](C)O)NC1=O [DP-451] ([dNMeA][NMeL][NMeL]LTA[NMeF]F[NMeL]D[NMeF]A-Piperidide; lactam N-10)	14 µL/min/mg	35 ×10⁻⁶ cm/s		
CC(C)C[C@H]1C(=O)N(C)[C@@H](Cc2ccccc2)C(=O)N[C@@H]([C@@H](C)O)C(=O)N(C)[C@@H](C)C(=O)N(C)[C@@H](CC(C)C)C(=O)N[C@@H](C(C)C)C(=O)N(C)[C@@H](CC(C)C)C(=O)N[C@H](C(=O)N(C)[C@@H](Cc2ccccc2)C(=O)N[C@@H](C)C(=O)N2CCCCC2)CC(=O)N(C)CC(=O)N1C [DP-202] ([Sar][NMeL][NMeF]T[NMeA][NMeL]V[NMeL]D[NMeF]A-Piperidide; lactam N-9)	134 µL/min/mg	55 ×10⁻⁶ cm/s		
CC[C@H](C)[C@H]1C(=O)NCC(=O)N[C@H](C(=O)N2CCCCC2)CC(=O)N(C)[C@H](C)C(=O)N[C@@H](Cc2ccccc2)C(=O)N(C)[C@@H](CC(C)C)C(=O)N[C@@H](COC(C)(C)C)C(=O)N[C@@H](Cc2ccccc2)C(=O)N2CCC[C@H]2C(=O)N[C@@H]([C@@H](C)O)C(=O)N[C@@H](CC(C)C)C(=O)N(C)[C@@H](C)C(=O)N1C [DP-62] ([dNMeA]F[NMeL]S(tBu)FPTL[NMeA][NMeI]GD-Piperidide; lactam N-12)			22 µL/min/mg	33 ×10⁻⁶ cm/s
CC[C@H](C)[C@H](NC(=O)[C@H](CC(C)C)N(C)C(=O)[C@@H]1CCCN1C(=O)[C@H](Cc1ccccc1)N(C)C(=O)[C@@H]1CC(=O)N(C)CCC(=O)N[C@@H](Cc2ccccc2)C(=O)N(C)[C@@H](CC(C)C)C(=O)N[C@@H]([C@@H](C)O)C(=O)N[C@@H](C(C)C)C(=O)NCC(=O)N(C)[C@@H](CC(C)C)C(=O)N[C@@H](CC(C)C)C(=O)N(C)[C@@H](CC(C)C)C(=O)N1)C(=O)N1CCCCC1 [DP-948] ([NMeβAla]F[NMeL]TVG[NMeL]L[NMeL]D[NMeF]P[NMeL]I-Piperidide; lactam N-10)	20 µL/min/mg	0.78 ×10⁻⁶ cm/s		
CC[C@H](C)[C@H]1C(=O)NCC(=O)N(C)[C@@H](C)C(=O)N[C@@H](CC(C)C)C(=O)N[C@@H](C)CC(=O)N(C)[C@@H](C)C(=O)N[C@@H](CC(C)C)C(=O)N(C)[C@@H](C)C(=O)N[C@@H]([C@@H](C)O)C(=O)N2CCC[C@H]2C(=O)N(C)[C@@H](Cc2cccc(Cl)c2)C(=O)N[C@@H](Cc2ccc(C(F)(F)F)cc2)C(=O)N1C [DP-810] (cyclo(G[NMeA]L[β3hA][NMeA]L[NMeA]TP[NMePhe(3-Cl)][Phe(4-CF3)][NMeI]))			46 µL/min/mg	14 ×10⁻⁶ cm/s
CC[C@H](C)[C@@H]1NC(=O)[C@H](CC(C)C)N(C)C(=O)[C@H](Cc2ccccc2)N(C)C(=O)[C@H](CC(C)C)NC(=O)[C@@H](C)NC(=O)C[C@@H](C(=O)N2CCCCC2)NC(=O)[C@H](C)N(C)C(=O)[C@H](C)N(C)C(=O)CN(C)C(=O)[C@H]([C@@H](C)O)NC(=O)[C@H](Cc2ccccc2)N(C)C(=O)[C@H](C(C)C)N(C)C1=O [DP-131] ([dA]L[NMeF][NMeL]I[NMeV][NMeF]T[Sar][NMeA][NMeA]D-Piperidide; lactam N-12)	48 µL/min/mg	61 ×10⁻⁶ cm/s		
CC(C)C[C@H]1C(=O)N(C)[C@@H](Cc2ccccc2)C(=O)N[C@@H](Cc2ccccc2)C(=O)N(C)[C@@H](CC(C)C)C(=O)N[C@@H]([C@@H](C)O)C(=O)N(C)[C@@H](C)C(=O)N[C@H](C(=O)N2CCCCC2)CC(=O)N(C)[C@H](C)C(=O)N[C@@H](C)C(=O)N1C [DP-157] ([dNMeA]A[NMeL][NMeF]F[NMeL]T[NMeA]D-Piperidide; lactam N-9)	368 µL/min/mg	27 ×10⁻⁶ cm/s		
CC[C@H](C)[C@H]1C(=O)N(C)[C@@H](CC(C)C)C(=O)N[C@H](C(=O)N2CCCCC2)CC(=O)N(C)CCCC(=O)N(C)[C@@H](Cc2ccccc2)C(=O)N[C@@H](Cc2ccccc2)C(=O)N2CCC[C@H]2C(=O)N[C@@H](CC(C)C)C(=O)N(C)[C@@H](C(C)C)C(=O)N[C@@H]([C@@H](C)O)C(=O)N(C)CC(=O)N[C@@H](C)C(=O)N1C [DP-225] ([NMeGABA][NMeF]FPL[NMeV]T[Sar]A[NMeI][NMeL]D-Piperidide; lactam N-12)	32 µL/min/mg	16 ×10⁻⁶ cm/s		
CC[C@H](C)[C@H]1C(=O)NCC(=O)N(C)[C@@H](C)C(=O)N[C@@H](CC(C)C)C(=O)N[C@@H](C)CC(=O)N(C)[C@@H](C)C(=O)N[C@@H](CC(C)C)C(=O)N(C)[C@@H](C)C(=O)N[C@@H]([C@@H](C)O)C(=O)N2CCC[C@H]2C(=O)N1C [DP-827] (cyclo(G[NMeA]L[β3hA][NMeA]L[NMeA]TP[NMeI]))			49 µL/min/mg	5.8 ×10⁻⁶ cm/s
CC(C)C[C@@H]1NC(=O)[C@H](CC(C)C)N(C)C(=O)[C@H]([C@@H](C)O)NC(=O)[C@H](Cc2ccccc2)N(C)C(=O)CN(C)C(=O)[C@H](CC(C)C)N(C)C(=O)[C@@H](C(C)C)NC(=O)C[C@@H](C(=O)N2CCCCC2)NC1=O [DP-714] ([dV][NMeL][Sar][NMeF]T[NMeL]LD-Piperidide; lactam N-8)	145 µL/min/mg	31 ×10⁻⁶ cm/s		
CC(C)C[C@H]1C(=O)N(C)[C@@H](C)C(=O)N[C@H](C(=O)N(C)[C@@H](Cc2ccccc2)C(=O)N[C@@H](C)C(=O)N2CCCCC2)CC(=O)N(C)[C@@H](C)C(=O)N(C)[C@@H](C)C(=O)N(C)[C@@H](Cc2ccccc2)C(=O)N[C@@H]([C@@H](C)O)C(=O)N(C)[C@@H](C)C(=O)N(C)[C@@H](Cc2ccccc2)C(=O)N[C@@H](C)C(=O)N1C [DP-377] ([NMeA][NMeA][NMeF]T[NMeA][NMeF]A[NMeL][NMeA]D[NMeF]A-Piperidide; lactam N-10)	70 µL/min/mg	23 ×10⁻⁶ cm/s		
CC[C@H](C)[C@H]1C(=O)N(C)CC(=O)N(C)[C@@H](C(C)C)C(=O)N[C@@H]([C@@H](C)O)C(=O)N[C@H](C(=O)N2CCCCC2)CC(=O)N[C@H](C(C)C)C(=O)N(C)[C@@H](C)C(=O)N(C)[C@@H](CC(C)C)C(=O)N[C@@H](CC(C)C)C(=O)N(C)[C@@H](Cc2ccccc2)C(=O)N[C@@H](Cc2ccccc2)C(=O)N1C [DP-233] ([dV][NMeA][NMeL]L[NMeF]F[NMeI][Sar][NMeV]TD-Piperidide; lactam N-11)	39 µL/min/mg	32 ×10⁻⁶ cm/s		
CC(C)C[C@H]1C(=O)N(C)[C@@H](CC(C)C)C(=O)N[C@@H]([C@@H](C)O)C(=O)N(C)[C@@H](Cc2ccccc2)C(=O)NCC(=O)N(C)[C@@H](C(C)C)C(=O)N[C@@H](Cc2ccccc2)C(=O)N[C@@H](C)CC(=O)N(C)CCC(=O)N[C@@H](COC(C)(C)C)C(=O)N1C [DP-777] (cyclo(F[β3hA][NMeβAla]S(tBu)[NMeL][NMeL]T[NMeF]G[NMeV]))	428 µL/min/mg	39 ×10⁻⁶ cm/s		
CC[C@H](C)[C@H]1C(=O)NCC(=O)N(C)[C@@H](Cc2ccccc2)C(=O)N[C@@H]([C@@H](C)O)C(=O)N(C)[C@@H](C)C(=O)N[C@@H](CC(C)C)C(=O)N[C@H](C(=O)N2CCCCC2)CC(=O)N(C)CCC(=O)N(C)[C@@H](C)C(=O)N[C@@H](Cc2ccccc2)C(=O)N[C@@H](C(C)C)C(=O)N(C)[C@@H](CC(C)C)C(=O)N1C [DP-59] ([NMeβAla][NMeA]FV[NMeL][NMeI]G[NMeF]T[NMeA]LD-Piperidide; lactam N-12)			65 µL/min/mg	21 ×10⁻⁶ cm/s
CC[C@H](C)[C@@H]1NC(=O)[C@@H]2CCCN2C(=O)[C@H]([C@@H](C)O)NC(=O)[C@H](Cc2ccccc2)NC(=O)CNC(=O)[C@H](Cc2ccccc2)N(C)C(=O)[C@H](CC(C)C)NC(=O)[C@H](CC(C)C)N(C)C(=O)[C@H](CC(C)C)N(C)C(=O)CCCN(C)C(=O)C[C@@H](C(=O)N2CCCCC2)NC1=O [DP-113] ([NMeGABA][NMeL][NMeL]L[NMeF]GFTPID-Piperidide; lactam N-11)			84 µL/min/mg	28 ×10⁻⁶ cm/s

Reference: patent US9409952B2, “Peptide-compound cyclization method” (Chugai Seiyaku Kabushiki Kaisha, priority 2011, dated 2016)
